Assay results from patent US20240390581A1, “METHOD AND APPARATUS FOR A STEADY STATE INT[…] OF SEROTONERGIC DRUGS” (PSOULMED, LLC, priority 2021, published 2024).

Key:
infusion veins = experiment: Venous response to intravenous administration of DMT; type: in vivo
Source text: A second, and perhaps more serious issue, with the Gallimore Strassman paper is the administration of DMT intravenously. […] This is especially true of serotonergic drugs which, as noted, can be phlebitic at the site of administration. This in combination with probable chemical irritation, even with iso-osmolar concentrations buffered to a physiologic pH (using DMT fumarate or similar salt), intravenous thrombophlebitis can occur at a rate

humans [1] = conditions: IV single bolus; cited from earlier work
humans [2] = conditions: cited from earlier work
subject [3] = conditions: believed, not measured; cited from earlier work
subject [4] = experiment: Intramuscular bolus plus infusion of DMT, subject-reported effects; type: in vivo, human
Procedure: In intramuscular infusion, the muscle is first loaded which then diffuses into the peripheral soft tissues, the lymphatics and blood, and then the CNS. The result is a very gentle rise in effect, with the earliest effects usually noticed within the first 2 minutes, and the subject experiencing threshold effects somewhere between 5 and 15 minutes. The intensification of the experience is slow, and while there is some overshoot, it is quite manageable, and usually lasts for only minutes. The key here is turning the pump off when the ideal state is reached, or at the earliest sign of being above the ideal level and reporting when those levels have been achieved.
The same assumptions for IV infusion are made with IM infusion, a 75 kg individual who identifies smoking 25 mg of DMT as an ideal dose. A muscle should be chosen for access with the infusion needle. While any muscle will work, the most favorable option is probably the anterolateral thigh. This allows the patient to be positioned supine comfortably. If the anterolateral thigh is chosen, appropriate garments should be worn by the patient to expose the thigh in a manner that is suitable for access. […]
When the subject is ready, the bolus dose is administered over a short amount of time, preferably about 60 seconds, from time t=0 to t=1 minute. […]

[5] = higher dose, 0.4 mg/kg bolus (G-S FIG. 2A); cited from earlier work
[6] = cited from earlier work
[7] = Transfer rate constants of the Gallimore-Strassman two-compartment model, calculated from G-S Table 2; parameters: species or system human
Source text: For consistency with the G-S model, referred to here as FIG. 1 is the (prior art) model from the 2016 paper by Gallimore Strassman (prior art), where: • k10 rate of elimination from the central compartment (min^−1) • k12 transfer rate from central to peripheral compartment (min^−1) • T same as k12 • k21 transfer rate from peripheral to central compartment (min^−1) • K1e transfer rate from central compartment to effect site (min^−1) • Ke0 rate of elimination of drug from the effect site (min^−1) E same as ke0 • CT plasma concentration (mg/ml) • RT rate at which drug reaches the effect site (mg/min) • [C] DMT concentration in the central compartment (mg/ml) • [P] DMT concentration in the peripheral compartment (mg/ml) […].
It should be appreciated that the notation used in the prior art (G-S) is very different from the notation used herein in developing the models in the present disclosure. In G-S (p. 5), E is used for the elimination rate, without it being made clear if this is the elimination rate from the effect site or from the central compartment. Also, T is used interchangeably with k12 from G-S FIG. 1. The extra parameters in G-S Table 2, Vc (L), Vp (L), Km (mg/L), Vm (mg/min), Q12 (L/min) are not defined, modulo a minor footnote (bottom of p. 4) stating that:

vein = experiment: Additives to the intravenous DMT infusion, flow rate and venous injury; type: in vivo; conditions: magnesium 0.1 mg/mL to 100 mg/mL in DMT infusion or maintenance line
Source text: In this respect, the inventors addressed the following goals: • 1. […] A method for combining goals 1 and/or 2 with nitroglycerine ointment on the vein to be cannulated prior to gaining intravenous access, which improves vein patency and dilution from blood flow as well as normal saline. • 4. A method for creating an injectable form of a DMT salt such as fumarate, or freebase DMT in a solution or suspension or emulsion in an iso-osmolar or near iso-osmolar carrier such as hyaluronic acid or polyethylene glycol, as to minimize molecular interaction with the walls and endothelium of the peripheral vasculature, while maintaining water soluble or miscible properties as to not adversely affect the pharmacokinetics. • 5. A method for utilizing goal 4, with any other drug or substance that may cause venous irritation, to minimize the risk of thrombophlebitis, such as nanoparticles or crystals in suspension, or similarly, chemotherapeutic drugs, anesthetic agents and the like.

[8] = inhaling vaporized or smoked DMT, or single IV bolus

| Structure (SMILES) | venous effects of intravenous administration (infusion veins) | onset of psychological effects (humans [1]) | time by which psychological effects were almost completely resolved (humans [1]) [minutes] | time of peak psychological effects (humans [1]) [seconds] | duration of experience (humans [2]; [8]) [min] | time of peak experience (humans [2]; [8]) | effect of oral ingestion (humans [2]; oral ingestion, rapid metabolism by monoamine oxidase) | CNS concentration equating to a full experience (subject [3]) | CNS concentration equating to a threshold experience (subject [3]) | time to earliest drug effects (subject [4]) [min] | time for drug effects to fully abate after pump is turned off (subject [4]; pump off) | blood concentration [5] [ng/mL] | biological half-life ([6]; in vivo) | half-life of injected DMT ([6]; injected) | k12, transfer rate from central to peripheral compartment ([7]; 0.2 mg/kg) [min⁻¹] | k21, transfer rate from peripheral to central compartment ([7]; 0.2 mg/kg) [min⁻¹] | k12, transfer rate from central to peripheral compartment ([7]; 0.4 mg/kg) [min⁻¹] | k21, transfer rate from peripheral to central compartment ([7]; 0.4 mg/kg) [min⁻¹] | effect on venous injury (vein) |
| --- | --- | --- | --- | --- | --- | --- | --- | --- | --- | --- | --- | --- | --- | --- | --- | --- | --- | --- | --- |
| CN(C)CCc1c[nH]c2ccccc12 [DMT, N,N-dimethyltryptamine] | causing vasoconstriction, phlebitis and eventual closing of the infusion veins | almost immediately after administration | ≤ 30 | 90 to 120 | 10 to 15 | around 5 minutes | virtually no effect | roughly 100 ng/ml | roughly 60 ng/ml | ≤ 2 | within about an hour or less | 100 | in the range of minutes | about 15 minutes | 0.3286 | 0.2 | 0.6021 | 0.1647 | – |
| [Mg+2] [magnesium] | – | – | – | – | – | – | – | – | – | – | – | – | – | – | – | – | – | – | decrease venous injury |
